Laboratory results as given in patent US8906829B2, “Synergistic algicidal compositions including hydrazone derivatives and copper” (Dow AgroSciences LLC, priority 2010, dated 2014).

Legend:
[1] = tested on: Synechocystis sp. strain 6803; assay: Growth inhibition of Synechocystis by hydrazones and isolated metal-hydrazone complexes, BG-11 Cu minus medium (Example 12); assay type: cell-based; conditions: for inhibition of growth at 0.05 µg/mL / Complex % Inhn.: Test Concn. 0.05 μg/ml
Method: In vitro toxicity assays against the cyanobacterium (blue-green alga) Synechocystis sp. strain 6803 were conducted using BG-11 medium except that copper micronutrient, normally included as CuSO4.5H2O, was omitted. The medium, termed BG-11 Cu minus, was prepared by dissolving 1.5 g NaNO3, 40 mg K2HPO4, 6 mg citric acid, 1 mg Na2EDTA and 20 mg Na2CO3 in 1 liter of milli Q water and treating the solution with 0.5 g Chelex 100 resin (Bio-Rad Analytical grade, 50-100 mesh, sodium form, cat#142-2822) by stifling at room temperature for 1 h. 900 mL were decanted and 67.5 mg MgSO4.7H2O, 32.4 mg […], 5.4 mg ferric ammonium citrate and 0.9 mL trace metal mix A5 without copper (2.86 g H3BO3, 1.81 g MnCl2.4H2O, 222 mg ZnSO4.7H2O, 390 mg Na2MoO4.2H2O and Co(NO3)2.6H2O in 1 L Milli Q water) was added. The pH was adjusted to 7.1 and the medium was filter-sterilized. Medium containing copper (BG-11 Cu plus) was prepared by adding CuCl2.2H2O to the BG-11 Cu minus medium at 0.2 μM. Test compounds were dissolved in dimethylsulfoxide (DMSO) at 2 mg/mL then appropriate dilutions in BG-11 Cu minus and BG-11 Cu plus media were prepared in sterilized microcentrifuge tubes. 100 μL aliquots were dispensed into flat-bottomed 96-well microtiter plates. Synechocystis was maintained under 24 h of light on BG-11 agar plates at 27° C. A loopful of cells was added to 50 mL of BG-11 Cu minus growth medium and the culture was incubated with shaking at 200 rpm at 27° C. for 24 h. The culture (10 to 20 mL aliquot) was centrifuged in a bench centrifuge at 2400 rpm for 2 min. The resulting cell pellet was resuspended in 5 mL sterile milli Q water (which had been treated with Chelex 100 resin using 0.5 g resin per liter of water by stirring at room temperature for 1 h), and recentrifuged. The cells were resuspended in BG-11 Cu minus medium, and the suspension adjusted to 4×10^5 spores per mL. Microtiter plates containing compounds as described above were inoculated with 100 μL of this cell suspension and the plates incubated at 27° C. for 72 h before assessing algal growth by measuring light scattering in a NepheloStar plate reader. Growth inhibition was determined by comparing growth in the presence of test compound with growth in control wells lacking test compound. Hydrazones and their isolated metal complexes were compared with respect to their in vitro activity toward C. reinhardtii and the cyanobacterium (blue-green alga) Synechocystis sp. strain 6803. Metal complexes of hydrazones were prepared by precipitation from ethanol with various metal salts at 1:1, 2:1 or 3:1 molar ratios, as described in general by Ainscough, Brodie, Dobbs, Ranford, and Waters (Inorganica Chimica Acta 1998, 267, 27-38, which is expressly incorporated by reference herein). In vitro assays against Synechocystis were conducted as described in Example 11 using BG-11 Cu minus medium. Growth inhibition was determined by comparing growth in the presence of test compound with growth in control wells lacking test compound.

[2] = tested on: C. reinhardtii CC-1928; assay: Effect of copper on activity of hydrazones: in vitro growth inhibition of C. reinhardtii in TAP Cu minus / TAP Cu plus medium (Example 10); assay type: cell-based, Chlamydomonas reinhardtii; conditions: for inhibition of growth at 1 µg/mL: Chlamydomonas reinhardtii, TAP Cu minus medium, read-out: % Inhn. Minus Copper Observed; for inhibition of growth at 1 µg/mL / % Inhn. Plus Copper Observed: test compound 1 μg/mL, 48 h; for % Inhn. Plus Copper Observed: TAP Cu plus medium (CuCl2); for % Inhn. by copper chloride alone: CuCl2, 10 μM, TAP Cu plus vs TAP Cu minus without test compound, across experiments
In short: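 Washed cells (suspension 2×10^5 spores per mL) added to compound at 1 μg/mL in Chelex-treated TAP Cu minus or TAP Cu plus (20 μM CuCl2). After 48 h at 27 °C, growth read by light scattering; % inhibition vs compound-free wells, plus-Cu predicted values by Colby formula from minus-Cu data.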

[3] = Synechocystis, read-out: Hydrazone % Inhn.

Compound | inhibition of growth at 1 µg/mL [2] [%] | % Inhn. Plus Copper Observed [2] [%] | other results
O=C(N/N=C/c1cc(Cl)cc(Cl)c1O)c1ccccc1 [Compound 1] | 16 | 96 | inhibition of growth at 0.05 µg/mL [1, 3]: 35%
C/C(=N\NC(=O)c1ccccc1)c1cc(Cl)cc(Cl)c1O [Compound 6] | 13 | 98 | inhibition of growth at 0.025 µg/mL ([1]; Synechocystis, Test Concn. 0.025 μg/ml, read-out: Hydrazone % Inhn.): 70%
O=C(N/N=C/c1cc(Cl)cc(Cl)c1O)c1ccccc1O [Compound 7] | 29 | 94 | inhibition of growth at 0.0125 µg/mL ([1]; Synechocystis, Test Concn. 0.0125 μg/ml, read-out: Hydrazone % Inhn.): 62%
C/C(=N\NC(=O)c1ccc(Cl)cc1)c1cc(Cl)cc(Cl)c1O [Compound 12] | 4 | 96 | 
O=C(N/N=C/c1cc(Cl)cc(Br)c1O)c1ccccc1 [Compound 14] | 6 | 97 | 
O=C(N/N=C/c1cc(Cl)cc(Br)c1O)c1ccc(Cl)cc1 [Compound 15] | 11 | 97 | 
O=C(N/N=C/c1cc(Cl)cc(Br)c1O)c1ccccc1O [Compound 18] | 13 | 95 | 
O=C(N/N=C/c1ccc(Cl)c(Cl)c1O)c1ccccc1 [Compound 21] | 6 | 94 | 
C/C(=N\NC(=O)c1cccc(C)c1)c1cc(Cl)cc(Cl)c1O [Compound 25, 3-methyl-benzoic acid [1-(3,5-dichloro-2-hydroxyphenyl)-ethylidene]-hydrazide] | 33 | 95 | 
C/C(=N\NC(=O)c1ccc(C)cc1)c1cc(Cl)cc(Cl)c1O [Compound 26] | 5 | 94 | inhibition of growth at 0.05 µg/mL [1, 3]: 50%
O=C(N/N=C/c1cc(Cl)cc(C(F)(F)F)c1O)c1ccccc1 [Compound 27] | 30 | 96 | inhibition of growth at 0.05 µg/mL [1, 3]: 41%
O=C(N/N=C/c1cc(C(F)(F)F)cc(C(F)(F)F)c1O)c1ccc(Cl)cc1 [Compound 32] | 21 | 97 | inhibition of growth at 0.05 µg/mL [1, 3]: 68%
O=C(N/N=C/c1c(Cl)ccc(Cl)c1O)c1ccc(Cl)cc1 [Compound 45] | 9 | 96 | 
O=C(N/N=C/c1cccc(Cl)c1O)c1ccc(Cl)cc1 [Compound 52] | -4 | 88 | inhibition of growth at 0.05 µg/mL [1, 3]: 45%
O=C(N/N=C/c1c(C(F)(F)F)ccc(Cl)c1O)c1ccc(Cl)cc1 [Compound 56] | 11 | 97 | 
Cc1ccccc1C(=O)N/N=C/c1cc(Cl)cc(Cl)c1O [Compound 63] | -18 | 93 | inhibition of growth at 0.05 µg/mL [1, 3]: 23%
CC(=O)[O-].CC(=O)[O-].O=C(N/N=C/c1cc(Cl)cc(Cl)c1O)c1ccccc1.[Cu+2] [Compound 72] |  |  | Complex % Inhn. [1]: 98%
CC(=O)[O-].CC(=O)[O-].O=C(N/N=C/c1cc(Cl)cc(Cl)c1O)c1ccccc1.O=C(N/N=C/c1cc(Cl)cc(Cl)c1O)c1ccccc1.[Cu+2] [Compound 73] |  |  | Complex % Inhn. [1]: 97%
O=C(N/N=C/c1cc(Cl)cc(Cl)c1O)c1ccccc1.O=C(N/N=C/c1cc(Cl)cc(Cl)c1O)c1ccccc1.O=S(=O)([O-])[O-].[Cu+2] [Compound 74] |  |  | Complex % Inhn. [1]: 95%
O=C(N/N=C/c1cc(Cl)cc(Cl)c1O)c1ccccc1.[Cl-].[Cl-].[Cu+2] [Compound 75] |  |  | Complex % Inhn. [1]: 97%
O=C(N/N=C/c1cc(Cl)cc(Cl)c1O)c1ccccc1.O=C(N/N=C/c1cc(Cl)cc(Cl)c1O)c1ccccc1.[Cl-].[Cl-].[Cu+2] [Compound 76] |  |  | Complex % Inhn. [1]: 96%
O=C(N/N=C/c1cc(Cl)cc(Cl)c1O)c1ccccc1.O=C(N/N=C/c1cc(Cl)cc(Cl)c1O)c1ccccc1.[Cl-].[Cl-].[Mn+2] [Compound 77] |  |  | Complex % Inhn. [1]: 35%
O=C(NN=Cc1cc(Cl)cc(Cl)c1O)c1ccccc1.O=C(NN=Cc1cc(Cl)cc(Cl)c1O)c1ccccc1.[Cl-].[Cl-].[Zn+2] [Compound 78] |  |  | Complex % Inhn. [1]: 59%
[Cl][Cu][Cl] [CuCl2, Copper chloride, reference compound] |  |  | % Inhn. by copper chloride alone [2]: −11.7 ± 6.0%; % Inhn. by copper chloride alone ([2]; listed as Copper chloride): slight enhancement of growth
